Data as given in publication PMC3907690 (FEBS Open Bio, 2014).

What was measured:
WalKc(PH) = WalKc(PH) (Bacillus anthracis, UniProt A0A6H3AEB6)
WalKc = WalKc (Bacillus anthracis, UniProt A0A6H3AEB6)
WalKc(H) = WalKc(H) (Bacillus anthracis, UniProt A0A6H3AEB6)
WalR = WalR (Bacillus anthracis, UniProt A0A2P0HLU7)
WalR, sequence (A0A2P0HLU7 1-235): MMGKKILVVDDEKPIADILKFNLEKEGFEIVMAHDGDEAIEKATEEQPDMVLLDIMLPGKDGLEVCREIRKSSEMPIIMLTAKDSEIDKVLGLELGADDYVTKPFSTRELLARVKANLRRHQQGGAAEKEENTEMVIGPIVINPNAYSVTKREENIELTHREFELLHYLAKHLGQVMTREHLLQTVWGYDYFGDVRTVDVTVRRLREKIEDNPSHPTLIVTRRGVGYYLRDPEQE

WalKc(H), sequence (A0A6H3AEB6 380-613 limits assumed): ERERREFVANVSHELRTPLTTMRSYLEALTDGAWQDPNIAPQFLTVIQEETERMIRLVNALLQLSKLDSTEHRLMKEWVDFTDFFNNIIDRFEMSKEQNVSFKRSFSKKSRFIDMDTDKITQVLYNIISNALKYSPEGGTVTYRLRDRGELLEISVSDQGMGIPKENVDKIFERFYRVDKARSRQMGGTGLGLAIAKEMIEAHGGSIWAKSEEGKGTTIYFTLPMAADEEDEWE
WalKc(PH), sequence (A0A6H3AEB6 263-613 limits assumed): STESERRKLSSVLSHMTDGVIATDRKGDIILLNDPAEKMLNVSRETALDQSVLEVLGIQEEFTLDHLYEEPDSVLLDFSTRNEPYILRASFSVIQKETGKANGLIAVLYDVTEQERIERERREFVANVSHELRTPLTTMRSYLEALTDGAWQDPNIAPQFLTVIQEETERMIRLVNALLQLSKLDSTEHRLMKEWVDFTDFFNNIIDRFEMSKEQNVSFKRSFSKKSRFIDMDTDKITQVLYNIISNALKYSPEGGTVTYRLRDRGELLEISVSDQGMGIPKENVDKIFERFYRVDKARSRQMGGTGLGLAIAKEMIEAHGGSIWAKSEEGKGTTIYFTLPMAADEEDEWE
WalKc, sequence (A0A6H3AEB6 210-613 limits assumed): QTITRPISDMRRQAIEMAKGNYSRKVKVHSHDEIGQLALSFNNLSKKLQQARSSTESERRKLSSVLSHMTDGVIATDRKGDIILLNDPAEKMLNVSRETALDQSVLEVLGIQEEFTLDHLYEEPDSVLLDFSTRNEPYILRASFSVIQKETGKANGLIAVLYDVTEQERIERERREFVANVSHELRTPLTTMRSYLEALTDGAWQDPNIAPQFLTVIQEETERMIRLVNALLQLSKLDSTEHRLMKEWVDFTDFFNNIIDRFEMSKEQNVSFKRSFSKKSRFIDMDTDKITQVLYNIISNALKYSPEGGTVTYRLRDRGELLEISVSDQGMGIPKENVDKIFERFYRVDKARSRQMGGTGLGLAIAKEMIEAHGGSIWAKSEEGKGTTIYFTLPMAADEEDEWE

| SMILES | autophosphorylation, 32P SDS-PAGE autoradiography (WalKc(PH)) | autophosphorylation, 32P SDS-PAGE autoradiography (WalKc) | autophosphorylation, 32P SDS-PAGE autoradiography (WalKc(H)) | phosphorylation of WalR, native PAGE with coomassie staining (WalR) |
| --- | --- | --- | --- | --- |
| Nc1ncnc2c1ncn2[C@@H]1O[C@H](COP(=O)(O)OP(=O)(O)OP(=O)(O)O)[C@@H](O)[C@H]1O [ATP] | Both, WalKc(PH) and WalKc(H), appeared to be more efficient than WalKc in autophosphorylation | When WalKc was incubated with labeled ATP mixture, autophosphorylation could be detected | Both, WalKc(PH) and WalKc(H), appeared to be more efficient than WalKc in autophosphorylation | – |
| NC(=O)OP(=O)(O)O [carbamoyl phosphate] | – | – | – | Carbamoyl phosphate mediated phosphorylation of WalR was also found to be inefficient |
